{"source": "patent US9708359B2", "about": "“Pyrrolopyrimidine nucleosides and analogs thereof” (Chimerix, Inc., priority 2015, dated 2017)", "key": {"HCMV": {"test_system": "HCMV", "assay": "Plaque-reduction assay for HCMV", "assay_type": "cell-based, human cytomegalovirus", "settings": "Human betaherpesvirus 5, HFF cells", "description": "Plaque-Reduction Assays for HSV-1, HSV-2, VZV and HCMV:\nMonolayers of cells were prepared in six-well plates and incubated at to allow the cells to reach confluency. Media was then aspirated from the wells and of virus was added to each of three wells to yield 20-30 plaques in each well. The virus was allowed to adsorb to the cells for 1 h and the plates were rocked gently every 15 min to redistribute the media. Compounds were diluted in maintenance cell culture media consisting of MEM with Earl's salts supplemented with 2% FBS, L-glutamine, penicillin, and gentamycin. Solutions were added to duplicate wells and the plates were incubated for various times, depending on the virus used. The plaque-reduction assay with HSV-1 strain F was performed in a similar manner but with Vero cells infected one day after plating. For HSV-1 and -2, the monolayers were stained with 1% crystal violet in 20% methanol and the unbound dye removed by washing with dH2O. For assays with HCMV and VZV, the cell monolayer was stained with 1% Neutral Red solution for 4 h then the stain was aspirated and the cells were washed with PBS. For all assays, plaques were enumerated using a stereomicroscope and the concentration of compound that reduced plaque formation by 50% (EC50) was interpolated from the experimental data. […]"}, "RSV": {"test_system": "RSV", "assay": "microbe, parasite or virus in culture", "assay_type": "cell-based", "settings": "human respiratory syncytial virus, MA104, MA-104 cells"}, "RAW cells": {"test_system": "RAW cells", "assay": "Conversion of Compound 1 to Triphosphate in RAW Cells"}, "AdV": {"test_system": "AdV", "assay": "microbe, parasite or virus in culture", "assay_type": "cell-based", "settings": "unidentified adenovirus, A549 cells"}, "[1]": {"assay": "Cytotoxicity in lymphocyte assays, MOLT-3 cells", "assay_type": "cell-based", "settings": "human, parallel to HHV-6B assay", "description": "(§1) Every antiviral assay included a parallel cytotoxicity assay with the same cells used for each virus, the same cell number, the same drug concentrations, and the same incubation times to provide the same drug exposure. To ensure that the cytotoxicity of all compounds could be compared directly, a standard neutral red uptake cytotoxicity assay for all compounds in confluent HFF cells with a 7 d incubation period was performed.\n(§2) Cytotoxicity in Lymphocyte Assays:\n(§3) Cell viability in all assays with lymphocytes was assessed with a luminescent Cell Viability Assay. Briefly, assay plates were incubated at ambient temperature for 30 min then luminescent reagent was added to each well and the plates were mixed to lyse the cells. Plates were then incubated for at ambient temperature and the luminescence was quantified on a luminometer. Standard methods were used to calculate drug concentrations that inhibited the proliferation of cells by 50% (CC50).\n(§4) Cell viability in all assays with lymphocytes was assessed with the CellTiter-Glo Luminescent Cell Viability Assay (Promega). […] Plates were then incubated for an additional 10 min at ambient temperature and the luminescence was quantified on a luminometer. […]"}, "POV-3": {"test_system": "POV-3", "assay": "microbe, parasite or virus in culture", "assay_type": "cell-based, Poliovirus", "settings": "Enterovirus C, Vero 76"}, "DENV-2": {"test_system": "DENV-2", "assay": "microbe, parasite or virus in culture", "assay_type": "cell-based", "settings": "Dengue virus, DENV2, Vero 76; DENV-2, Vero76 cells"}, "[2]": {"assay": "Cytotoxicity in lymphocyte assays, Akata cells", "assay_type": "cell-based", "settings": "human, parallel to EBV assay", "description": "as §1, §2, §3, §4"}, "HCV": {"test_system": "HCV", "assay": "microbe, parasite or virus in culture", "assay_type": "cell-based", "settings": "Hepatitis C virus, Huh 7 cells", "description": "Luciferase reporter (Replicon)/CytoTox-1 (Toxicity). Compounds were screened for anti-HCV activity using a luciferase (Luc) reporter gene endpoint in the HCV primary assay. The Luc reporter was used as an indirect measure of HCV replication as its activity is directly proportional to HCV RNA levels. Assessment of cytotoxicity is conducted in parallel. Drug stocks were prepared in DMSO unless otherwise specified and were diluted with tissue culture medium to the desired high-test concentration. For each assay, the compounds were then further diluted in tissue culture medium as required. After incubation, the cells were processed to derive, where applicable, EC50 and EC90 (compound concentration reducing replicon replication by 50% and 90% respectively). […] Anti-HCV activity was assessed with the replicon (genotype 1b or 2a) or HCVcc virus-derived Luc activity as readout; whereas the cytotoxic concentrations of drug reducing cell numbers was assessed by the CytoTox-1 cell proliferation assay according to manufacturer's protocol. […]\nLuciferase reporter (Replicon)/CytoTox-1 (Toxicity). […] Anti-HCV activity was assessed with the replicon (genotype 1b or 2a) or HCVcc virus-derived Luc activity as readout; whereas the cytotoxic concentrations of drug reducing cell numbers was assessed by the CytoTox-1 cell proliferation assay (Promega, Madison, Wis.) according to manufacturer's protocol. […]"}, "[3]": {"settings": "RAW cells incubated with 0.5 μM Compound 1 for 48 hours"}, "[4]": {"settings": "RAW cells incubated with 1 μM Compound 1 for 48 hours"}, "[5]": {"settings": "RAW cells incubated with 5 μM Compound 1 for 48 hours"}, "[6]": {"settings": "RAW cells incubated with 10 μM Compound 1 for 48 hours"}}}
{"smiles": "Cc1nc(N)c2c(C(N)=O)cn([C@@H]3O[C@H](CO)[C@@H](O)[C@H]3O)c2n1", "note": "[Compound 1, 4-amino-7-((2R,3R,4S,5R)-3,4-dihydroxy-5-(hydroxymethyl)tetrahydrofuran-2-yl)-2-methyl-7H-pyrrolo[2,3-d]pyrimidine-5-carboxamide]", "values": [{"measurement": "EC50", "setting": "HCMV", "result": "> 60", "unit": "µM"}, {"measurement": "EC50", "setting": "RSV", "result": 31, "unit": "µM"}, {"measurement": "Concentration (ng/1 × 10^6 cells)", "setting": "RAW cells; [3]", "result": 0.17, "unit": "ng/1 × 10^6 cells"}, {"measurement": "Concentration (pmol/1 × 10^6 cells)", "setting": "RAW cells; [3]", "result": 0.53, "unit": "pmol/1 × 10^6 cells"}, {"measurement": "Concentration (ng/1 × 10^6 cells)", "setting": "RAW cells; [4]", "result": 0.13, "unit": "ng/1 × 10^6 cells"}, {"measurement": "Concentration (pmol/1 × 10^6 cells)", "setting": "RAW cells; [4]", "result": 0.40, "unit": "pmol/1 × 10^6 cells"}, {"measurement": "Concentration (ng/1 × 10^6 cells)", "setting": "RAW cells; [5]", "result": 0.65, "unit": "ng/1 × 10^6 cells"}, {"measurement": "Concentration (pmol/1 × 10^6 cells)", "setting": "RAW cells; [5]", "result": 2.01, "unit": "pmol/1 × 10^6 cells"}, {"measurement": "Concentration (ng/1 × 10^6 cells)", "setting": "RAW cells; [6]", "result": 1.02, "unit": "ng/1 × 10^6 cells"}, {"measurement": "Concentration (pmol/1 × 10^6 cells)", "setting": "RAW cells; [6]", "result": 3.15, "unit": "pmol/1 × 10^6 cells"}, {"measurement": "EC50", "setting": "AdV", "result": "> 100", "unit": "µM"}, {"measurement": "CC50", "setting": "[1]", "result": 44.7, "unit": "µM"}, {"measurement": "EC50", "setting": "POV-3", "result": "> 100", "unit": "µM"}, {"measurement": "EC50", "setting": "DENV-2", "result": "> 100", "unit": "µM"}, {"measurement": "CC50", "setting": "[2]", "result": "> 60", "unit": "µM"}, {"measurement": "EC50", "setting": "HCV", "result": 18.4, "unit": "µM"}]}
